# Where “and” joins values, the source holds several entries; their conditions need not be identical. Equal values may be shown once.
# Key:
# [1] = biological target: T1, rat uterine cytosol estrogen receptor (Rattus norvegicus, UniProt P06211); conditions: cited from earlier work
# T1 construct: rat uterine cytosol estrogen receptor; host or cells: rat uterus (cytosol / nuclear fraction)
# T1 sequence (P06211 1-600): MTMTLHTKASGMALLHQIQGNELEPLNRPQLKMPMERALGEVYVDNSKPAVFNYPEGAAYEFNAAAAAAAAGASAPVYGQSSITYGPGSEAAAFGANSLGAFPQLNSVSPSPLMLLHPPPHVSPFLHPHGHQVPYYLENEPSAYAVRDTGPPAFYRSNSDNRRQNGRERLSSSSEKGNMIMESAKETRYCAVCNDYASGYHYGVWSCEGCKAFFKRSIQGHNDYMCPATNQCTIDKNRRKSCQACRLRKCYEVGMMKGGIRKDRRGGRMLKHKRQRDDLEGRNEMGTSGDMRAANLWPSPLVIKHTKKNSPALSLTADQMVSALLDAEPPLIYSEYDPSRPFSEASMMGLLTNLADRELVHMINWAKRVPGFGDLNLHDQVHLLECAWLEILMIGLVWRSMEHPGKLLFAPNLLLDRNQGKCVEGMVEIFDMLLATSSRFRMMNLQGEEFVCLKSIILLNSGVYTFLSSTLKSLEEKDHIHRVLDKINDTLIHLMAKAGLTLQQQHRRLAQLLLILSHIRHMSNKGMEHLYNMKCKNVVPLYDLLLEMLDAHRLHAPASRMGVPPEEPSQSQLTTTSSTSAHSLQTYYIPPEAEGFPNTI
# [2] = system: ovariectomized adult rats; test: Vaginal cornification bioassay in ovariectomized rats; format: in vivo, rat
# Text: Uterine weight increase in the rat is more commonly used as a measure of estrogenicity. […] In the early 1920s it was discovered that follicular fluid from the pig ovary contained a factor(s) that caused cornification/keratinization of the vaginal epithelium in the rat (Allen and Doisy, 1923, JAMA, 81,819-821; Allen and Doisy, 1924, Am. J. Physiol., 69, 577-588). The so-called vaginal cornification response in rats subsequently provided a bioassay for testing estrogenicity. Vaginal epithelial cornification/keratinization in ovariectomized rats can be produced only by compounds considered to be true estrogens (Jones et al, 1973, Fert. Steril. 24, 284-291). […] Adult intact female CD rats were ovariectomized to induce estrogen deficiency. […] Castrate vaginal smears are indicative that complete ovanectomy was achieved. Treatment commenced following completion of the 7 days of smearing (day 0=first day of dosing). Animals were dosed, once daily for 7 consecutive days. Daily vaginal lavages continued to be obtained for 7 days after dosing was initiated in order to detect vaginal cornification, as an indication of an estrogenic response. A drop of vaginal washings was placed on a glass slide and examined by light microscopy to detect the presence or absence of cornified epithelial cells. Vaginal lavages were obtained prior to dosing on days 0-6 and prior to necropsy on day 7. The vaginal cornification bioassay was performed in order to determine the estrogenic profile of E4 when given subcutaneously (sc) to ovariectomized adult rats. E2 was used as a positive control. […] The vaginal cornification bioassay was performed in order to determine the estrogenic profile of E4 when given orally (po) to ovariectomized adult rats. EE was used as a positive control. […] A vaginal estrogenic response occurred in all rats (8/8) given 50 μg/kg/day EE po by day 7 (Table 2).
structure (smiles),measurement,setting,value
"C[C@]12CC[C@@H]3c4ccc(O)cc4CC[C@H]3[C@@H]1[C@@H](O)[C@@H](O)[C@@H]2O [E4, 1,3,5(10)-estratrien-3,15α,16α,17β-tetrol]","relative binding affinity, of 17β-estradiol (100%)",[1],0.5%
same,Number of Rats Exhibiting Estrogenic Response/Number of Rats Treated,"[2]; po, 0.1 mg/kg/day, Day 0",0/8
same,Number of Rats Exhibiting Estrogenic Response/Number of Rats Treated,"[2]; po, 0.1 mg/kg/day, Day 1",0/8
same,Number of Rats Exhibiting Estrogenic Response/Number of Rats Treated,"[2]; po, 0.1 mg/kg/day, Day 2",1/8
same,Number of Rats Exhibiting Estrogenic Response/Number of Rats Treated,"[2]; po, 0.1 mg/kg/day, Day 3",7/8
same,Number of Rats Exhibiting Estrogenic Response/Number of Rats Treated,"[2]; po, 0.1 mg/kg/day, Day 4",8/8
same,Number of Rats Exhibiting Estrogenic Response/Number of Rats Treated,"[2]; po, 0.1 mg/kg/day, Day 5",8/8
same,Number of Rats Exhibiting Estrogenic Response/Number of Rats Treated,"[2]; po, 0.1 mg/kg/day, Day 6",8/8
same,Number of Rats Exhibiting Estrogenic Response/Number of Rats Treated,"[2]; po, 0.1 mg/kg/day, Day 7",8/8
same,Number of Rats Exhibiting Estrogenic Response/Number of Rats Treated,"[2]; po, 0.3 mg/kg/day, Day 0",0/8
same,Number of Rats Exhibiting Estrogenic Response/Number of Rats Treated,"[2]; po, 0.3 mg/kg/day, Day 1",0/8
same,Number of Rats Exhibiting Estrogenic Response/Number of Rats Treated,"[2]; po, 0.3 mg/kg/day, Day 2",1/8
same,Number of Rats Exhibiting Estrogenic Response/Number of Rats Treated,"[2]; po, 0.3 mg/kg/day, Day 3",7/8
same,Number of Rats Exhibiting Estrogenic Response/Number of Rats Treated,"[2]; po, 0.3 mg/kg/day, Day 4",8/8
same,Number of Rats Exhibiting Estrogenic Response/Number of Rats Treated,"[2]; po, 0.3 mg/kg/day, Day 5",8/8
same,Number of Rats Exhibiting Estrogenic Response/Number of Rats Treated,"[2]; po, 0.3 mg/kg/day, Day 6",8/8
same,Number of Rats Exhibiting Estrogenic Response/Number of Rats Treated,"[2]; po, 0.3 mg/kg/day, Day 7",8/8
same,Number of Rats Exhibiting Estrogenic Response/Number of Rats Treated,"[2]; po, 1.0 mg/kg/day, Day 0",0/8
same,Number of Rats Exhibiting Estrogenic Response/Number of Rats Treated,"[2]; po, 1.0 mg/kg/day, Day 1",0/8
same,Number of Rats Exhibiting Estrogenic Response/Number of Rats Treated,"[2]; po, 1.0 mg/kg/day, Day 2",4/8
same,Number of Rats Exhibiting Estrogenic Response/Number of Rats Treated,"[2]; po, 1.0 mg/kg/day, Day 3",8/8
same,Number of Rats Exhibiting Estrogenic Response/Number of Rats Treated,"[2]; po, 1.0 mg/kg/day, Day 4",8/8
same,Number of Rats Exhibiting Estrogenic Response/Number of Rats Treated,"[2]; po, 1.0 mg/kg/day, Day 5",8/8
same,Number of Rats Exhibiting Estrogenic Response/Number of Rats Treated,"[2]; po, 1.0 mg/kg/day, Day 6",8/8
same,Number of Rats Exhibiting Estrogenic Response/Number of Rats Treated,"[2]; po, 1.0 mg/kg/day, Day 7",8/8
same,Number of Rats Exhibiting Estrogenic Response/Number of Rats Treated,"[2]; po, 3.0 mg/kg/day, Day 0",0/8
same,Number of Rats Exhibiting Estrogenic Response/Number of Rats Treated,"[2]; po, 3.0 mg/kg/day, Day 1",0/8
same,Number of Rats Exhibiting Estrogenic Response/Number of Rats Treated,"[2]; po, 3.0 mg/kg/day, Day 2",6/8
same,Number of Rats Exhibiting Estrogenic Response/Number of Rats Treated,"[2]; po, 3.0 mg/kg/day, Day 3",8/8
same,Number of Rats Exhibiting Estrogenic Response/Number of Rats Treated,"[2]; po, 3.0 mg/kg/day, Day 4",8/8
same,Number of Rats Exhibiting Estrogenic Response/Number of Rats Treated,"[2]; po, 3.0 mg/kg/day, Day 5",8/8
same,Number of Rats Exhibiting Estrogenic Response/Number of Rats Treated,"[2]; po, 3.0 mg/kg/day, Day 6",8/8
same,Number of Rats Exhibiting Estrogenic Response/Number of Rats Treated,"[2]; po, 3.0 mg/kg/day, Day 7",8/8
same,"onset of vaginal cornification (animals responding at days 1-3), po versus sc","[2]; relatively low doses, e.g. 0.1 mg/kg/day",faster in po-treated
same,onset of vaginal epithelial cornification,"[2]; sc 0.1, 0.3, 1.0 and 3.0 mg/kg/day",dose-dependent
same,Number of Rats Exhibiting Estrogenic Response/Number of Rats Treated,"[2]; sc, 0.1 mg/kg/day, Day 0",0/8
same,Number of Rats Exhibiting Estrogenic Response/Number of Rats Treated,"[2]; sc, 0.1 mg/kg/day, Day 1",0/8
same,Number of Rats Exhibiting Estrogenic Response/Number of Rats Treated,"[2]; sc, 0.1 mg/kg/day, Day 2",0/8
same,Number of Rats Exhibiting Estrogenic Response/Number of Rats Treated,"[2]; sc, 0.1 mg/kg/day, Day 3",1/8
same,Number of Rats Exhibiting Estrogenic Response/Number of Rats Treated,"[2]; sc, 0.1 mg/kg/day, Day 4",1/8
same,Number of Rats Exhibiting Estrogenic Response/Number of Rats Treated,"[2]; sc, 0.1 mg/kg/day, Day 5",4/8
same,Number of Rats Exhibiting Estrogenic Response/Number of Rats Treated,"[2]; sc, 0.1 mg/kg/day, Day 6",3/8
same,Number of Rats Exhibiting Estrogenic Response/Number of Rats Treated,"[2]; sc, 0.1 mg/kg/day, Day 7",4/8
same,Number of Rats Exhibiting Estrogenic Response/Number of Rats Treated,"[2]; sc, 0.3 mg/kg/day, Day 0",0/8
same,Number of Rats Exhibiting Estrogenic Response/Number of Rats Treated,"[2]; sc, 0.3 mg/kg/day, Day 1",0/8
same,Number of Rats Exhibiting Estrogenic Response/Number of Rats Treated,"[2]; sc, 0.3 mg/kg/day, Day 2",1/8
same,Number of Rats Exhibiting Estrogenic Response/Number of Rats Treated,"[2]; sc, 0.3 mg/kg/day, Day 3",5/8
same,Number of Rats Exhibiting Estrogenic Response/Number of Rats Treated,"[2]; sc, 0.3 mg/kg/day, Day 4",7/8
same,Number of Rats Exhibiting Estrogenic Response/Number of Rats Treated,"[2]; sc, 0.3 mg/kg/day, Day 5",6/8
same,Number of Rats Exhibiting Estrogenic Response/Number of Rats Treated,"[2]; sc, 0.3 mg/kg/day, Day 6",7/8
same,Number of Rats Exhibiting Estrogenic Response/Number of Rats Treated,"[2]; sc, 0.3 mg/kg/day, Day 7",7/8
same,Number of Rats Exhibiting Estrogenic Response/Number of Rats Treated,"[2]; sc, 1.0 mg/kg/day, Day 0",0/8
same,Number of Rats Exhibiting Estrogenic Response/Number of Rats Treated,"[2]; sc, 1.0 mg/kg/day, Day 1",0/8
same,Number of Rats Exhibiting Estrogenic Response/Number of Rats Treated,"[2]; sc, 1.0 mg/kg/day, Day 2",1/8
same,Number of Rats Exhibiting Estrogenic Response/Number of Rats Treated,"[2]; sc, 1.0 mg/kg/day, Day 3",6/8
same,Number of Rats Exhibiting Estrogenic Response/Number of Rats Treated,"[2]; sc, 1.0 mg/kg/day, Day 4",8/8
same,Number of Rats Exhibiting Estrogenic Response/Number of Rats Treated,"[2]; sc, 1.0 mg/kg/day, Day 5",7/8
same,Number of Rats Exhibiting Estrogenic Response/Number of Rats Treated,"[2]; sc, 1.0 mg/kg/day, Day 6",8/8
same,Number of Rats Exhibiting Estrogenic Response/Number of Rats Treated,"[2]; sc, 1.0 mg/kg/day, Day 7, 1 mg/kg/day",all rats and 8/8
same,Number of Rats Exhibiting Estrogenic Response/Number of Rats Treated,"[2]; sc, 3.0 mg/kg/day, Day 0",0/8
same,Number of Rats Exhibiting Estrogenic Response/Number of Rats Treated,"[2]; sc, 3.0 mg/kg/day, Day 1",0/8
same,Number of Rats Exhibiting Estrogenic Response/Number of Rats Treated,"[2]; sc, 3.0 mg/kg/day, Day 2",3/8
same,Number of Rats Exhibiting Estrogenic Response/Number of Rats Treated,"[2]; sc, 3.0 mg/kg/day, Day 3",8/8
same,Number of Rats Exhibiting Estrogenic Response/Number of Rats Treated,"[2]; sc, 3.0 mg/kg/day, Day 4",8/8
same,Number of Rats Exhibiting Estrogenic Response/Number of Rats Treated,"[2]; sc, 3.0 mg/kg/day, Day 5",8/8
same,Number of Rats Exhibiting Estrogenic Response/Number of Rats Treated,"[2]; sc, 3.0 mg/kg/day, Day 6",8/8
same,Number of Rats Exhibiting Estrogenic Response/Number of Rats Treated,"[2]; sc, 3.0 mg/kg/day, Day 7, 3 mg/kg/day",all rats and 8/8

# Source: US7723320B2, “Use of estrogen compounds to increase libido in women” (Pantarhei Bioscience B.V., priority 2001, dated 2010)
